According to patent publication US11000033B2, “Ketone or oxime compound, and herbicide” (NISSAN CHEMICAL CORPORATION, priority 2014, dated 2021):

Key:
Format in all cases: in vivo
[1] = tested on: Galium spurium; assay: Test Example 4: herbicidal effect by soil treatment (symbol Q); conditions: 320 g/ha
Procedure, shortened: (§1)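 Seeds were sown in sterilized diluvial soil, covered with about 1.5 cm of soil, and the soil surface was sprayed with a water-diluted emulsion of the compound at a predetermined rate. Plants grew in a greenhouse at 25° C. to 30° C.; effects were scored visually 3 weeks after application.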

[2] = tested on: beet; assay: Test Example 5: effect on crop by foliage application, plastic box (symbol f); conditions: 320 g/ha, 3 weeks after application
Procedure, shortened: (§2)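 Crop and weed seeds sown in spots in sterilized diluvial soil in plastic boxes and covered with about 1.5 cm soil. Plants raised in a greenhouse at 25° C. to 30° C. for foliar application.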

[3] = tested on: Stellaria media; assay: Test Example 5: herbicidal effect by foliage application, plastic box (symbol P); conditions: 320 g/ha, 3 weeks after application
Procedure, shortened: (§3)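 Herbicide, formulated as an emulsion and diluted in water, is sprayed onto the aerial parts of 14-day seedlings. These were grown at 25° C. to 30° C. in sterilized diluvial soil; effects are graded after 3 weeks.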

[4] = tested on: rice plant; assay: Test Example 5: effect on crop by foliage application, plastic box (symbol b); conditions: 320 g/ha, 3 weeks after application
Procedure, shortened: as §2

[5] = tested on: Lolium multiflorum Lam.; assay: Test Example 4: herbicidal effect by soil treatment (symbol K); conditions: 320 g/ha
Procedure, shortened: as §1

[6] = tested on: Avena fatua; assay: Test Example 5: herbicidal effect by foliage application, plastic box (symbol I); conditions: 320 g/ha, 3 weeks after application
Procedure, shortened: as §3

[7] = tested on: Digitaria ciliaris; assay: Test Example 5: herbicidal effect by foliage application, plastic box (symbol F); conditions: 320 g/ha, 3 weeks after application
Procedure, shortened: as §3

[8] = tested on: beet; assay: Test Example 4: effect on crop by soil treatment (symbol f); conditions: 320 g/ha
Procedure, shortened: (§4)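 Crop seed is sown in spots together with several weed species in a box of sterilized diluvial soil. It is covered by about 1.5 cm of soil and kept in a greenhouse held between 25° C. and 30° C.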

[9] = tested on: rapeseed; assay: Test Example 4: effect on crop by soil treatment (symbol g); conditions: 320 g/ha
Procedure, shortened: as §4

[10] = tested on: Echinochloa crus-galli var. crus-galli; assay: Test Example 4: herbicidal effect by soil treatment (symbol H); conditions: 320 g/ha
Procedure, shortened: as §1

[11] = tested on: Alopecurus myosuroides; assay: Test Example 4: herbicidal effect by soil treatment (symbol J); conditions: 320 g/ha
Procedure, shortened: as §1

[12] = tested on: Veronica persica; assay: Test Example 5: herbicidal effect by foliage application, plastic box (symbol R); conditions: 320 g/ha, 3 weeks after application
Procedure, shortened: as §3

[13] = tested on: Chenopodium album; assay: Test Example 5: herbicidal effect by foliage application, plastic box (symbol O); conditions: 320 g/ha, 3 weeks after application
Procedure, shortened: as §3

[14] = tested on: Galium spurium; assay: Test Example 5: herbicidal effect by foliage application, plastic box (symbol Q); conditions: 320 g/ha, 3 weeks after application
Procedure, shortened: as §3

[15] = tested on: rice; assay: Test Example 4: effect on crop by soil treatment (symbol b); conditions: 320 g/ha
Procedure, shortened: as §4

[16] = tested on: Apera spica-venti; assay: Test Example 5: herbicidal effect by foliage application, plastic box (symbol L); conditions: 320 g/ha, 3 weeks after application
Procedure, shortened: as §3

[17] = tested on: Abutilon theophrasti; assay: Test Example 5: herbicidal effect by foliage application, plastic box (symbol M); conditions: 320 g/ha, 3 weeks after application
Procedure, shortened: as §3

[18] = tested on: directly sowed rice plant; assay: Test Example 3: effect on crop by foliage application, Wagner pot (symbol b); conditions: application herbicide amount 320 g/ha
Procedure, shortened: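 Greenhouse culture at 25–30 °C of seeded rice, Cyperus difformis, Leptochloa chinensis and Echinochloa crus-galli var. crus-galli, in alluvial soil held under 0.1–0.5 cm of water in a Wagner pot.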

[19] = tested on: Stellaria media; assay: Test Example 4: herbicidal effect by soil treatment (symbol P); conditions: 320 g/ha
Procedure, shortened: as §1

[20] = tested on: Digitaria ciliaris; assay: Test Example 4: herbicidal effect by soil treatment (symbol F); conditions: 320 g/ha
Procedure, shortened: as §1

[21] = tested on: soybean; assay: Test Example 4: effect on crop by soil treatment (symbol d); conditions: 320 g/ha
Procedure, shortened: as §4

[22] = tested on: Veronica persica; assay: Test Example 4: herbicidal effect by soil treatment (symbol R); conditions: 320 g/ha
Procedure, shortened: as §1

[23] = tested on: wheat; assay: Test Example 5: effect on crop by foliage application, plastic box (symbol e); conditions: 320 g/ha, 3 weeks after application
Procedure, shortened: as §2

[24] = tested on: corn; assay: Test Example 4: effect on crop by soil treatment (symbol c); conditions: 320 g/ha
Procedure, shortened: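 Plants are raised in a greenhouse (25° C. to 30° C.) from spot-sown seed, which sits under about 1.5 cm of sterilized diluvial soil in a box shared with weed species.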

[25] = tested on: Setaria viridis; assay: Test Example 5: herbicidal effect by foliage application, plastic box (symbol G); conditions: 320 g/ha, 3 weeks after application
Procedure, shortened: as §3

Compound | Q: Galium spurium, herbicidal effect grade [1] | f: beet, effect on crop (criteria 0-5) [2] | P: Stellaria media, herbicidal effect (criteria 0-5) [3] | b: directly sowed rice plant, effect on crop (criteria 0-5) [4] | K: Lolium multiflorum Lam., herbicidal effect grade [5] | I: Avena fatua, herbicidal effect (criteria 0-5) [6] | F: Digitaria ciliaris, herbicidal effect (criteria 0-5) [7] | f: beet, effect grade on crop [8] | g: rapeseed, effect grade on crop [9] | H: Echinochloa crus-galli var. crus-galli, herbicidal effect grade [10] | J: Alopecurus myosuroides, herbicidal effect grade [11] | R: Veronica persica, herbicidal effect (criteria 0-5) [12] | O: Chenopodium album, herbicidal effect (criteria 0-5) [13] | Q: Galium spurium, herbicidal effect (criteria 0-5) [14] | b: directly sowed rice plant, effect grade on crop [15] | L: Apera spica-venti, herbicidal effect (criteria 0-5) [16] | M: Abutilon theophrasti, herbicidal effect (criteria 0-5) [17] | effect on crop b (directly sowed rice plant), grade 0-5 [18] | P: Stellaria media, herbicidal effect grade [19] | F: Digitaria ciliaris, herbicidal effect grade [20] | further results
CC(CC1CC(O)=C(c2c(C)cc(C)cc2C)C1=O)=NOCC1OCCO1 (stereo not drawn) [1-111] | 0 (Herbicidal ratio of 5% or lower (almost no effect)) | 0 (Herbicidal ratio of 5% or lower (almost no effect)) | 3 (Herbicidal ratio of 40% or higher and lower than 70%) | 5 (Herbicidal ratio of 90% or more (almost completely withered)) | 5 (Herbicidal ratio of 90% or more (almost completely withered)) | 5 (Herbicidal ratio of 90% or more (almost completely withered)) | 5 (Herbicidal ratio of 90% or more (almost completely withered)) | 0 (Herbicidal ratio of 5% or lower (almost no effect)) | 4 (Herbicidal ratio of 70% or higher and lower than 90%) | 5 (Herbicidal ratio of 90% or more (almost completely withered)) | 5 (Herbicidal ratio of 90% or more (almost completely withered)) | 1 (Herbicidal ratio of 5% or higher and lower than 20%) | 1 (Herbicidal ratio of 5% or higher and lower than 20%) | 2 (Herbicidal ratio of 20% or higher and lower than 40%) | 5 (Herbicidal ratio of 90% or more (almost completely withered)) | 5 (Herbicidal ratio of 90% or more (almost completely withered)) | 1 (Herbicidal ratio of 5% or higher and lower than 20%) | 5 (Herbicidal ratio of 90% or more (almost completely withered)) | 0 (Herbicidal ratio of 5% or lower (almost no effect)) | 5 (Herbicidal ratio of 90% or more (almost completely withered)) | d: soybean, effect grade on crop [21]: 1 (Herbicidal ratio of 5% or higher and lower than 20%); R: Veronica persica, herbicidal effect grade [22]: 0 (Herbicidal ratio of 5% or lower (almost no effect)); e: wheat, effect on crop (criteria 0-5) [23]: 5 (Herbicidal ratio of 90% or more (almost completely withered)); c: corn, effect grade on crop [24]: 1 (Herbicidal ratio of 5% or higher and lower than 20%); G: Setaria viridis, herbicidal effect (criteria 0-5) [25]: 5 (Herbicidal ratio of 90% or more (almost completely withered))
COc1ccc(CON=C(C)CC2CC(O)=C(c3c(C)cc(C)cc3C)C2=O)cc1 (stereo not drawn) [1-112] | 0 (Herbicidal ratio of 5% or lower (almost no effect)) | 0 (Herbicidal ratio of 5% or lower (almost no effect)) | 1 (Herbicidal ratio of 5% or higher and lower than 20%) | 5 (Herbicidal ratio of 90% or more (almost completely withered)) | 5 (Herbicidal ratio of 90% or more (almost completely withered)) | 5 (Herbicidal ratio of 90% or more (almost completely withered)) | 5 (Herbicidal ratio of 90% or more (almost completely withered)) | 0 (Herbicidal ratio of 5% or lower (almost no effect)) | 0 (Herbicidal ratio of 5% or lower (almost no effect)) | 4 (Herbicidal ratio of 70% or higher and lower than 90%) | 5 (Herbicidal ratio of 90% or more (almost completely withered)) | 3 (Herbicidal ratio of 40% or higher and lower than 70%) | 3 (Herbicidal ratio of 40% or higher and lower than 70%) | 3 (Herbicidal ratio of 40% or higher and lower than 70%) | 5 (Herbicidal ratio of 90% or more (almost completely withered)) | 5 (Herbicidal ratio of 90% or more (almost completely withered)) | 1 (Herbicidal ratio of 5% or higher and lower than 20%) | 5 (Herbicidal ratio of 90% or more (almost completely withered)) | 0 (Herbicidal ratio of 5% or lower (almost no effect)) | 4 (Herbicidal ratio of 70% or higher and lower than 90%) | d: soybean, effect grade on crop [21]: 0 (Herbicidal ratio of 5% or lower (almost no effect)); R: Veronica persica, herbicidal effect grade [22]: 0 (Herbicidal ratio of 5% or lower (almost no effect)); e: wheat, effect on crop (criteria 0-5) [23]: 5 (Herbicidal ratio of 90% or more (almost completely withered)); c: corn, effect grade on crop [24]: 1 (Herbicidal ratio of 5% or higher and lower than 20%); G: Setaria viridis, herbicidal effect (criteria 0-5) [25]: 4 (Herbicidal ratio of 70% or higher and lower than 90%)
CC(CC1CC(O)=C(c2c(C)cc(C)cc2C)C1=O)=NOCc1cccc(Cl)c1 (stereo not drawn) [1-114] | 0 (Herbicidal ratio of 5% or lower (almost no effect)) | 0 (Herbicidal ratio of 5% or lower (almost no effect)) | 3 (Herbicidal ratio of 40% or higher and lower than 70%) | 5 (Herbicidal ratio of 90% or more (almost completely withered)) | 5 (Herbicidal ratio of 90% or more (almost completely withered)) | 5 (Herbicidal ratio of 90% or more (almost completely withered)) | 5 (Herbicidal ratio of 90% or more (almost completely withered)) | 0 (Herbicidal ratio of 5% or lower (almost no effect)) | 1 (Herbicidal ratio of 5% or higher and lower than 20%) | 0 (Herbicidal ratio of 5% or lower (almost no effect)) | 4 (Herbicidal ratio of 70% or higher and lower than 90%) | 2 (Herbicidal ratio of 20% or higher and lower than 40%) | 3 (Herbicidal ratio of 40% or higher and lower than 70%) | 0 (Herbicidal ratio of 5% or lower (almost no effect)) | 3 (Herbicidal ratio of 40% or higher and lower than 70%) | 5 (Herbicidal ratio of 90% or more (almost completely withered)) | 1 (Herbicidal ratio of 5% or higher and lower than 20%) | 5 (Herbicidal ratio of 90% or more (almost completely withered)) | 0 (Herbicidal ratio of 5% or lower (almost no effect)) | 5 (Herbicidal ratio of 90% or more (almost completely withered)) | d: soybean, effect grade on crop [21]: 0 (Herbicidal ratio of 5% or lower (almost no effect)); R: Veronica persica, herbicidal effect grade [22]: 0 (Herbicidal ratio of 5% or lower (almost no effect)); e: wheat, effect on crop (criteria 0-5) [23]: 4 (Herbicidal ratio of 70% or higher and lower than 90%); c: corn, effect grade on crop [24]: 0 (Herbicidal ratio of 5% or lower (almost no effect)); G: Setaria viridis, herbicidal effect (criteria 0-5) [25]: 5 (Herbicidal ratio of 90% or more (almost completely withered))
